{"source": "ChEMBL document CHEMBL4837246", "about": "(J Med Chem, 2021)", "key": {"[1]": {"assay": "in vivo", "settings": "mouse, iv, 0.3 mg/kg"}, "[2]": {"assay": "in vivo", "settings": "Wistar, rat, iv, 0.3 mg/kg"}, "[3]": {"assay": "in vivo", "settings": "Wistar, rat, iv, 0.3 mg/kg", "remark": "listed apart in the source"}, "[4]": {"assay": "in vivo", "settings": "Wistar, rat, po, 0.6 mg/kg"}, "[5]": {"assay": "in vivo", "settings": "Wistar, rat, po, 0.6 mg/kg", "remark": "listed apart in the source"}, "[6]": {"assay": "in vivo", "settings": "mouse, iv, 0.3 mg/kg", "remark": "listed apart in the source"}, "[7]": {"assay": "in vivo", "settings": "mouse, iv, 0.3 mg/kg", "remark": "listed apart in the source"}, "[8]": {"assay": "in vivo", "settings": "Wistar, rat, iv, 0.3 mg/kg", "remark": "listed apart in the source"}}}
{"smiles": "FC(F)c1cncc(-c2ccc3ncc4nnc(C5=CCCOCC5)n4c3c2)c1", "values": [{"measurement": "Vd at 24 h", "setting": "[1]", "result": 3.7, "unit": "L/kg"}, {"measurement": "half-life at 24 h", "setting": "[2]", "result": 50.4, "unit": "min"}, {"measurement": "clearance at 24 h", "setting": "[3]", "result": 36.7, "unit": "mL/min/kg"}, {"measurement": "bioavailability at 24 h", "setting": "[4]", "result": 22, "unit": "%"}, {"measurement": "half-life at 24 h", "setting": "[5]", "result": 240, "unit": "min"}, {"measurement": "half-life at 24 h", "setting": "[6]", "result": 40.8, "unit": "min"}, {"measurement": "clearance at 24 h", "setting": "[7]", "result": 135, "unit": "mL/min/kg"}, {"measurement": "Vd at 24 h", "setting": "[8]", "result": 1.8, "unit": "L/kg"}]}
